Measured values from patent US11446347B2, “Antithrombotic composition comprising Angelica gigas Nakai extract” (Astrogenesis Co., Ltd., priority 2018, dated 2022).

Tested on: thrombus-induced mouse model
Experiment: In-vivo antithrombotic test, Rota-rod, collagen/epinephrine thrombus-induced mouse model
Design: species or system ICR mice
Settings: thrombus induced 90 min after drug, Rota-rod 24 rpm after 15 min
Method: As for the experimental animals, 5-week-old female ICR mice provided by YoungBio were stabilized in an animal laboratory at a temperature of 24±1° C., a humidity of 55±5% in a 12-hour day-night cycle for 1 week and used in the experiments.
The change in behavioral capacity was evaluated for the prepared thrombus-induced mouse model using Rota-rod, and the antithrombotic effect of the Angelica gigas Nakai extract was evaluated. The thrombus-induced mouse model was prepared as follows. A 6-week-old ICR mouse (about 20 to 25 g) stabilized as an experimental mouse was prepared, and subjected to Rota-rod training, and the reference value was created three times, and the rotation speed was set to 24 rpm, and objects withstanding without falling at a rotation speed of 300 or more were selected. […] After 15 minutes, Rota-rod testing was repeated 3 times (rotation speed: 24 rpm), and the difference in athletic performance was analyzed by the following Equation: Protection rate (%)=[(Total number of individuals−Number of killed or paralyzed individuals)/Total number of individuals]×100
Number of killed or paralyzed individuals: The number of individuals who fell at a rotation speed of 24 rpm or less in Rota-rod testing at a rotation speed of 150 or less)

| SMILES | Number of killed or paralyzed individuals / Number of total individuals (dose 100 mg/kg) | Protection (%) (dose 100 mg/kg) | Number of killed or paralyzed individuals / Number of total individuals (dose 10 mg/kg) | Protection (%) (dose 10 mg/kg) |
| --- | --- | --- | --- | --- |
| CC(=O)Oc1ccccc1C(=O)O [ASA (Aspirin), acetylsalicylic acid] | 11/20 | 45% | – | – |
| CC(C)=CC(=O)O[C@H]1Cc2cc3ccc(=O)oc3cc2OC1(C)C [Decursin, decursin] | – | – | 11/18 | 38.9% |
| CC1(C)Oc2cc3oc(=O)ccc3cc2C[C@@H]1O [Decursinol, decursinol] | – | – | 12/19 | 36.8% |
